Measured values: US6991937B2, “Urine cystine quantitation and supersaturation assay” (Litholink Corporation, priority 2001, dated 2006)
Marks after values point to notes of the source that are not given here.

Key:
[1] = Dissolution of solid phase cystine by cystine binding drugs in incubation buffer; settings: for Regression slope of cystine uptake on drug molarity, BUFFER: incubation buffer, 48 hours, 37° C.
Description: (§1) Using the same incubation buffer and cystine-dissolving agent systems as for the initial solid phase dissolution assay given in Example 1, increasing amounts of D-penicillamine, tiopronin, or captopril were added to 25 ml aliquots of the incubation buffer. A fixed amount of cystine was added; for tiopronin and D-penicillamine, about 40 mg, and for captopril about 20 mg. […] Incubation was carried out as in Example 1. After 48 hours, the pellet and supernatant were separated by centrifugation, the pellet was dissolved in 25 ml of cystine-dissolving agent, an alkalinizing buffer of 0.1 M sodium carbonate, pH 9.9, (Sigma Aldrich Corp, Catalog # S-7795), to form a final cystine solution. Cystine concentration was determined both in the supernatant and the final cystine solution according to the procedure given in Example 3. This same protocol was repeated using the ten normal urine samples employed in the basic solid phase dissolution study described in Example 1.
(§2) Cystine concentrations in either the incubation buffer or normal urine after removal of the residual solid phase cystine, or the final cystine solution after the dissolution of the solid phase cystine in a cystine-dissolving agent as shown in Example 1 and 2 were measured using the modified cyanide-nitroprusside method for quantifying urinary cystine concentration as reported by Nakagawa and Coe (Nakagawa, Y. and Coe, F. 1999. Clin Chim Acta 289:57–68). A 100 microliter aliquot was mixed with 400 microliters of water and 1 milliliter of 0.01 M sodium phosphate buffer containing 0.15 mol/liter NaCl, pH 7.3 (PBS). After adding 300 microliters of 10% NaCN aqueous solution (w/v), the sample was incubated for twenty minutes at room temperature. Color was developed by adding 100 microliters of 20% sodium nitroprusside aqueous solution (w/v). Within 20 seconds of the sodium nitroprusside addition, color intensity was then measured at 521 nm using a Beckman spectrophotometer (model DU 640), and cystine concentration was calculated by comparison to a standard curve which was prepared with each assay.
(§3) Routine means and t tests and linear regression analysis used standard statistical software (Systat, SPSS Corp., Chicago, Ill.). Differences in slopes of uptake with drugs were assessed by multivariate analysis in which cystine uptake was the dependent variable; drug molarity, the independent variable; either buffer vs urine or drug type, the categorical variable; and probability of homogeneity of slopes between the groups, defined by the categorical variable tested. Simple regression analysis was used to obtain the actual values of the slopes.

[2] = Dissolution of solid phase cystine by cystine binding drugs in normal urine; parameters: species or system human; settings: for molar proportion of cystine dissolved per drug, urine: normal urine; for Regression slope of cystine uptake on drug molarity, URINE: ten normal urine samples, 48 hours, 37° C.
Description: as §1, §2, §3

[3] = general statement; cited from earlier work

SMILES	molar proportion of cystine dissolved per drug, buffer [1]	Regression slope of cystine uptake on drug molarity, BUFFER [1]	molar proportion of cystine dissolved per drug, urine [2]	Regression slope of cystine uptake on drug molarity, URINE [2]	solubility of cystine in average normal urine [3]
CC(C)(S)[C@@H](N)C(=O)O [D-penicillamine]	0.24±0.01 mole/mole	0.25 ± 0.01	0.21±0.008 mole/mole	0.21 ± 0.01	
C[C@H](CS)C(=O)N1CCC[C@H]1C(=O)O [captopril]	0.36±0.04 mole/mole	0.36 ± 0.04#	0.35±0.01 mole/mole	0.35 ± 0.01#	
N[C@@H](CSSC[C@H](N)C(=O)O)C(=O)O [cystine]					200 to 400 µg/mL
CC(S)C(=O)NCC(=O)O (stereo not shown) [tiopronin]	0.41±0.02 mole/mole	0.41 ± 0.02#	0.36±0.01 mole/mole	0.36 ± 0.01	
